# Test system: NLRP3 inflammasome
# Assay: NLRP3 inflammasome activation: ASC-SPECK formation in gramicidin-stimulated THP-1 cells
# Type: cell-based
# Conditions: Homo sapiens, THP-1, inhibition of ASC SPECK formation; PMA-treated human monocytic THP-1 cells, compound 1 h before 12.5 μg/ml gramicidin, 3-hour treatment
# Summary of the method: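 Undifferentiated human THP-1 cells primed overnight with 10 ng/ml PMA, then given compounds 1 h before 12.5 μg/ml gramicidin for 3 h at 37° C in RPMI with 0.01% BSA. Fixed cells immunostained for ASC with DRAQ5 nuclear counterstain; DRAQ5-positive cells with ASC specks counted by high-content imaging; EC50 from curve fitting.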
row,Compound,EC50
1,"Cc1cc(C(F)(F)F)cc(O)c1-c1cnc2cn(C3CCOCC3)nc2n1 [Example 1, 3-methyl-2-(2-(tetrahydro-2H-pyran-4-yl)-2H-pyrazolo[3,4-b]pyrazin-6-yl)-5-(trifluoromethyl)phenol]",71 nM
2,"Cc1cc(C(F)(F)F)cc(O)c1-c1cnc2cn(C34CC(C3)S(=O)(=O)C4)nc2n1 [Example 2, 4-(6-(2-hydroxy-6-methyl-4-(trifluoromethyl)phenyl)-2H-pyrazolo[3,4-b]pyrazin-2-yl)-2-thiabicyclo[2.1.1]hexane 2,2-dioxide]",50 nM
3,"Cc1cc(C(F)(F)F)cc(O)c1-c1cnc2cn([C@H]3CCC(=O)N(C)C3)nc2n1 [Example 5, (5S)-5-[6-[2-hydroxy-6-methyl-4-(trifluoromethyl)phenyl]pyrazolo[3,4-b]pyrazin-2-yl]-1-methyl-piperidin-2-one]",13 nM
4,"Cc1cc(C(F)(F)F)cc(O)c1-c1cnc2cn(C[C@@H]3CCN(C)C3)nc2n1 [Example 6, (R)-3-methyl-2-(2-((1-methylpyrrolidin-3-yl)methyl)-2H-pyrazolo[3,4-b]pyrazin-6-yl)-5-(trifluoromethyl)phenol]",35 nM
5,"Cc1cc(C(F)(F)F)cc(O)c1-c1cnc2cn(C[C@H]3CNC(=O)C3)nc2n1 [Example 7, (R)-4-((6-(2-hydroxy-6-methyl-4-(trifluoromethyl)phenyl)-2H-pyrazolo[3,4-b]pyrazin-2-yl)methyl)pyrrolidin-2-one]",46 nM
6,"Cc1cc(C(F)(F)F)cc(O)c1-c1cnc2cn(C34CC(C#N)(C3)C4)nc2n1 [Example 8, 3-(6-(2-hydroxy-6-methyl-4-(trifluoromethyl)phenyl)-2H-pyrazolo[3,4-b]pyrazin-2-yl)bicyclo[1.1.1]pentane-1-carbonitrile]",38 nM
7,"Cc1cc(C(F)(F)F)cc(O)c1-c1cnc2cn([C@@H]3[C@@H]4COC[C@@H]43)nc2n1 [Example 9, 2-(2-((1R,5S,6S)-3-oxabicyclo[3.1.0]hexan-6-yl)-2H-pyrazolo[3,4-b]pyrazin-6-yl)-3-methyl-5-(trifluoromethyl)phenol]",59 nM
8,"Cc1cc(C(F)(F)F)cc(O)c1-c1cnc2cn([C@H]3[C@@H]4COC[C@@H]43)nc2n1 [Example 10, 2-(2-((1R,5S,6R)-3-oxabicyclo[3.1.0]hexan-6-yl)-2H-pyrazolo[3,4-b]pyrazin-6-yl)-3-methyl-5-(trifluoromethyl)phenol]",34 nM
9,"Cc1cc(C(F)(F)F)cc(O)c1-c1cnc2cn([C@H]3CC[C@@H](C#N)CC3)nc2n1 [Example 11, (1S,4S)-4-(6-(2-hydroxy-6-methyl-4-(trifluoromethyl)phenyl)-2H-pyrazolo[3,4-b]pyrazin-2-yl)cyclohexane-1-carbonitrile]",1500 nM
10,"Cc1cc(C(F)(F)F)cc(O)c1-c1cnc2cn(CC(C)(C)C#N)nc2n1 [Example 12, 3-(6-(2-hydroxy-6-methyl-4-(trifluoromethyl)phenyl)-2H-pyrazolo[3,4-b]pyrazin-2-yl)-2,2-dimethylpropanenitrile]",658 nM
11,"Cc1cc(C(F)(F)F)cc(O)c1-c1cnc2cn(CC3(C#N)CCC3)nc2n1 [Example 13, 1-((6-(2-hydroxy-6-methyl-4-(trifluoromethyl)phenyl)-2H-pyrazolo[3,4-b]pyrazin-2-yl)methyl)cyclobutane-1-carbonitrile]",264 nM
12,"Cc1cc(C(F)(F)F)cc(O)c1-c1cnc2cn(C34COCC(C3)C4)nc2n1 [Example 14, 2-(2-(3-oxabicyclo[3.1.1]heptan-1-yl)-2H-pyrazolo[3,4-b]pyrazin-6-yl)-3-methyl-5-(trifluoromethyl)phenol]",154 nM
13,"Cc1cc(C(F)(F)F)cc(O)c1-c1cnc2cn(C34CCOC(C)(C3)C4)nc2n1 [Example 15, 3-methyl-2-(2-(1-methyl-2-oxabicyclo[3.1.1]heptan-5-yl)-2H-pyrazolo[3,4-b]pyrazin-6-yl)-5-(trifluoromethyl)phenol]",84 nM
14,"Cc1cc(C(F)(F)F)cc(O)c1-c1cnc2cn([C@H]3C[C@H](F)C3)nc2n1 [Example 16, 2-(2-((1R,3R)-3-fluorocyclobutyl)-2H-pyrazolo[3,4-b]pyrazin-6-yl)-3-methyl-5-(trifluoromethyl)phenol]",25 nM

# The remaining lines, values ahead:
row,EC50,Compound
1,649 nM,"CCOCOc1cc(C(F)(F)F)cc(C)c1-c1cnc2c([C@H](C)O)n(C[C@H]3CC(=O)N(C4CC4)C3)nc2n1 (single isomer, unassigned) [Example 113, (S or R)-1-cyclopropyl-4-((6-(2-(ethoxymethoxy)-6-methyl-4-(trifluoromethyl)phenyl)-3-((S or R)-1-hydroxyethyl)-2H-pyrazolo[3,4-b]pyrazin-2-yl)methyl)pyrrolidin-2-one]"
2,57 nM,"CCOCOc1cc(C(F)(F)F)cc(C)c1-c1cnc2c([C@@H](C)O)n(C[C@H]3CC(=O)N(C4CC4)C3)nc2n1 (single isomer, unassigned) [Example 114, (S or R)-1-cyclopropyl-4-((6-(2-(ethoxymethoxy)-6-methyl-4-(trifluoromethyl)phenyl)-3-((R or S)-1-hydroxyethyl)-2H-pyrazolo[3,4-b]pyrazin-2-yl)methyl)pyrrolidin-2-one]"
3,287 nM,"CCOCOc1cc(C(F)(F)F)cc(C)c1-c1cnc2c([C@@H](C)O)n(C[C@@H]3CC(=O)N(C4CC4)C3)nc2n1 (single isomer, unassigned) [Example 115, (R or S)-1-cyclopropyl-4-((6-(2-(ethoxymethoxy)-6-methyl-4-(trifluoromethyl)phenyl)-3-((R or S)-1-hydroxyethyl)-2H-pyrazolo[3,4-b]pyrazin-2-yl)methyl)pyrrolidin-2-one]"
4,28 nM,"CCOCOc1cc(C(F)(F)F)cc(C)c1-c1cnc2c([C@H](C)O)n(C[C@@H]3CC(=O)N(C4CC4)C3)nc2n1 (single isomer, unassigned) [Example 116, (R or S)-1-cyclopropyl-4-((6-(2-(ethoxymethoxy)-6-methyl-4-(trifluoromethyl)phenyl)-3-((S or R)-1-hydroxyethyl)-2H-pyrazolo[3,4-b]pyrazin-2-yl)methyl)pyrrolidin-2-one]"
5,55 nM,"Cc1cc(C(F)(F)F)cc(O)c1-c1cnc2cn(C34COC(C3)C4)nc2n1 [Example 17, 2-(2-(2-oxabicyclo[2.1.1]hexan-4-yl)-2H-pyrazolo[3,4-b]pyrazin-6-yl)-3-methyl-5-(trifluoromethyl)phenol]"
6,465 nM,"Cc1cc(C(F)(F)F)cc(O)c1-c1cnc2cn([C@H]3C[C@@H](CC#N)C3)nc2n1 [Example 18, 2-((1s,3s)-3-(6-(2-hydroxy-6-methyl-4-(trifluoromethyl)phenyl)-2H-pyrazolo[3,4-b]pyrazin-2-yl)cyclobutyl)acetonitrile]"
7,51 nM,"Cc1cc(C(F)(F)F)cc(O)c1-c1cnc2cn(C34CCC(O)(C3)C4)nc2n1 [Example 26, 4-[6-[2-hydroxy-6-methyl-4-(trifluoromethyl)phenyl]pyrazolo[3,4-b]pyrazin-2-yl]bicyclo[2.1.1]hexan-1-ol]"
8,193 nM,"Cc1cc(C(F)(F)F)cc(O)c1-c1cnc2cn(C34COC(C)(C3)C4)nc2n1 [Example 27, 3-methyl-2-[2-(1-methyl-2-oxabicyclo[2.1.1]hexan-4-yl)pyrazolo[3,4-b]pyrazin-6-yl]-5-(trifluoromethyl)phenol]"
9,55 nM,"Cc1cc(C(F)(F)F)cc(O)c1-c1cnc2cn(C34CCC(O)(CC3)C4)nc2n1 [Example 28, 4-[6-[2-hydroxy-6-methyl-4-(trifluoromethyl)phenyl]pyrazolo[3,4-b]pyrazin-2-yl]norboman-1-ol]"
10,232 nM,"Cc1cc(C(F)(F)F)cc(O)c1-c1cnc2cn([C@]3(C)CCS(=O)(=O)C3)nc2n1 [Example 29, 3-methyl-2-[2-[(3R)-3-methyl-1,1-dioxo-thiolan-3-yl]pyrazolo[3,4-b]pyrazin-6-yl]-5-(trifluoromethyl)phenol]"
11,407 nM,"Cc1cc(C(F)(F)F)cc(O)c1-c1cnc2cn([C@@H]3CCS(=O)(=O)C3)nc2n1 [Example 30, 2-[2-[(3R)-1,1-dioxothiolan-3-yl]pyrazolo[3,4-b]pyrazin-6-yl]-3-methyl-5-(trifluoromethyl)phenol]"

# Same assay, conditions: inhibition of ASC SPECK formation; PMA-treated human monocytic THP-1 cells, compound 1 h before 12.5 μg/ml gramicidin, 3-hour treatment
row,EC50,Compound
1,29 nM,"Cc1cc(C(F)(F)F)cc(O)c1-c1cnc2c(C(C)O)n(C3CCC(=O)N(C(C)C)C3)nc2n1 (single isomer, unassigned) [Example 117, (S or R)-5-(6-(2-hydroxy-6-methyl-4-(trifluoromethyl)phenyl)-3-((S or R)-1-hydroxyethyl)-2H-pyrazolo[3,4-b]pyrazin-2-yl)-1-isopropylpiperidin-2-one]"
2,26 nM,"Cc1cc(C(F)(F)F)cc(O)c1-c1cnc2c(C(C)O)n(C3CCC(=O)N(C(C)C)C3)nc2n1 (single isomer, unassigned) [Example 118, (R or S)-5-(6-(2-hydroxy-6-methyl-4-(trifluoromethyl)phenyl)-3-((S or R)-1-hydroxyethyl)-2H-pyrazolo[3,4-b]pyrazin-2-yl)-1-isopropylpiperidin-2-one]"
3,291 nM,"Cc1cc(C(F)(F)F)cc(O)c1-c1cnc2c(C(C)O)n(C3CCC(=O)N(C(C)C)C3)nc2n1 (single isomer, unassigned) [Example 119, (R or S)-5-(6-(2-hydroxy-6-methyl-4-(trifluoromethyl)phenyl)-3-((R or S)-1-hydroxyethyl)-2H-pyrazolo[3,4-b]pyrazin-2-yl)-1-isopropylpiperidin-2-one]"
4,3880 nM,"Cc1cc(C(F)(F)F)cc(O)c1-c1cnc2c(C(C)O)n(C3CCC(=O)N(C(C)C)C3)nc2n1 (single isomer, unassigned) [Example 120, (S or R)-5-(6-(2-hydroxy-6-methyl-4-(trifluoromethyl)phenyl)-3-((R or S)-1-hydroxyethyl)-2H-pyrazolo[3,4-b]pyrazin-2-yl)-1-isopropylpiperidin-2-one]"

# Reference: patent US20250195511A1, “INDAZOLE DERIVATIVES USEFUL AS INHIBITORS OF NOD-LIKE RECEPTOR PROTEIN 3” (Merck Sharp & Dohme LLC, priority 2023, published 2025)
